Experimental findings from BindingDB's records for patent US11485738 (MIRATI THERAPEUTICS, INC., 2022) are described below.

For this experiment, the target named is Histone-binding protein RBBP4/Polycomb protein EED/Polycomb protein SUZ12/Zinc finger protein AEBP2 (Human, UniProt O75530+Q09028+Q15022+Q6ZN18). In words: Enzymatic Activity Assay.
Chain of Histone-binding protein RBBP4/Polycomb protein EED/Polycomb protein SUZ12/Zinc finger protein AEBP2 (O75530 whole entry): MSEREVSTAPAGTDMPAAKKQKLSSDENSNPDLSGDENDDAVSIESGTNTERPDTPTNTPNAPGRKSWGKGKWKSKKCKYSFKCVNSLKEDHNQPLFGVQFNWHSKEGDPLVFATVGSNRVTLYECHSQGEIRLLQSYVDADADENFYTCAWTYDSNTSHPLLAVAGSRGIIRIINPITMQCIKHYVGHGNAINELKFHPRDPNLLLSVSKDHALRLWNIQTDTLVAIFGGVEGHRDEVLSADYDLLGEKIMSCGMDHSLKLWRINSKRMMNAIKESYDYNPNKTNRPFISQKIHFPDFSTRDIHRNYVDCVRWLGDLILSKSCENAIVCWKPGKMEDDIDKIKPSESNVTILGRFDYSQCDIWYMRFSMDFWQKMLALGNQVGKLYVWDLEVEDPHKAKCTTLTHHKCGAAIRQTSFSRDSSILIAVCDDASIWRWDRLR
Chain of Histone-binding protein RBBP4/Polycomb protein EED/Polycomb protein SUZ12/Zinc finger protein AEBP2 (Q15022 whole entry): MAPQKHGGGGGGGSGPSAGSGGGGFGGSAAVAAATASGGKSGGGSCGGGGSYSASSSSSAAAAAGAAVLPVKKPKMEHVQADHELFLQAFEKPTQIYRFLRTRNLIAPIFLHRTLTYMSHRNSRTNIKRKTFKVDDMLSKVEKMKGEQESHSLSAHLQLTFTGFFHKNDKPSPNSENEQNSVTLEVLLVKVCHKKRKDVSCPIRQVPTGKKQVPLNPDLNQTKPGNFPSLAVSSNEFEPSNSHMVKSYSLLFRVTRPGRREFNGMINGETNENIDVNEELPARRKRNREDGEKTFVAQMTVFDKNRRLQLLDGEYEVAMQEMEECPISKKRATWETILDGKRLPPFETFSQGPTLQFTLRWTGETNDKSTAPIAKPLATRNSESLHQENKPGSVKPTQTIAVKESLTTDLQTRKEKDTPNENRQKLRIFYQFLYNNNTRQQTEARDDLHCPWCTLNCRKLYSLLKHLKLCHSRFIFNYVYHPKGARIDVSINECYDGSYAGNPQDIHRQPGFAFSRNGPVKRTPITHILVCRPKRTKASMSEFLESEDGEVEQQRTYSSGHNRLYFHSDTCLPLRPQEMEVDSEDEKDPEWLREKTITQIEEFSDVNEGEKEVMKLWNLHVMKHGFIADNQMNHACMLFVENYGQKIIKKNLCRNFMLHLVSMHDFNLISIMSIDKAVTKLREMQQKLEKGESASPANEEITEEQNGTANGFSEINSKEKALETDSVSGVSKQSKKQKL
Chain of Histone-binding protein RBBP4/Polycomb protein EED/Polycomb protein SUZ12/Zinc finger protein AEBP2 (Q6ZN18 whole entry): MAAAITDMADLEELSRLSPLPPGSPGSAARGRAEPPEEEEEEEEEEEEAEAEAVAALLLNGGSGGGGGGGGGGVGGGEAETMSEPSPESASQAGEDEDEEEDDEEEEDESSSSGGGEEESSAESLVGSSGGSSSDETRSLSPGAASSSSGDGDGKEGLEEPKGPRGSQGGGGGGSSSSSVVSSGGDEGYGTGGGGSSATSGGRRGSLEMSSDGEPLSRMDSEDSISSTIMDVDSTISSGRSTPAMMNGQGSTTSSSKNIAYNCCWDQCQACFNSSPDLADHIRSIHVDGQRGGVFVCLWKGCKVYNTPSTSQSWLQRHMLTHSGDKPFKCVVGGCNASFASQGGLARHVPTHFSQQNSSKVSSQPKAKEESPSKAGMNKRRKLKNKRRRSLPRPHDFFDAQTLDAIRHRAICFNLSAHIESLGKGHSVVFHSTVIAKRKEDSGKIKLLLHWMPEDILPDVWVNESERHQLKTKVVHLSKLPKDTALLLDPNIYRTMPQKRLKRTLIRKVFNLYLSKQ
Chain of Histone-binding protein RBBP4/Polycomb protein EED/Polycomb protein SUZ12/Zinc finger protein AEBP2 (Q09028 whole entry): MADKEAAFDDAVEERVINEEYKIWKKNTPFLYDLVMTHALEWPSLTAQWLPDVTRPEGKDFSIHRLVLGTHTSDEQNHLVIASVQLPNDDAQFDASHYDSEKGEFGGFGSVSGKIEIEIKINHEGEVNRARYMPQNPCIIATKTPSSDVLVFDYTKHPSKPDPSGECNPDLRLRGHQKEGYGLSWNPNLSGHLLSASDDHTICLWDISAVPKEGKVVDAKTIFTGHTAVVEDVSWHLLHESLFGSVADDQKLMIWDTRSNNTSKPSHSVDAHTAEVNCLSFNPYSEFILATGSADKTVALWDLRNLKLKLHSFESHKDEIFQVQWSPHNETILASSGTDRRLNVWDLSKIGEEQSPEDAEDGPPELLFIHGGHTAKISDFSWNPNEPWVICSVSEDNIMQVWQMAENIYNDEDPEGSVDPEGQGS

Description: An aliquot of each serial dilution of test compound was added to deep 384 well plate using Acoustic Technology instrument (Echo 550, LabCyte) containing reaction buffer (50 mM Tris-HCl (pH 8), 0.01% Brij35, 1 mM EDTA, 1 mM DTT, 1 mM PMSF and 1% DMSO), 10 nM purified PRC2 complex and 0.05 mg/ml core histone H3 in a 5 μl volume. The reaction was mixed gently and then pre-incubated for 20 min at 30° C. The enzymatic reaction was initiated by adding 1 uM S-Adenosyl-L-[methyl-3H]methionine and incubated for 1 hr at 30° C. After 1 hr, the reaction product was detected using a filter binding method and the amount of tritiated H3 core histone was quantitated using a scintillation counter.

The IC50 is the point on the concentration scale where inhibition reaches its midpoint. Low values mean inhibition by little substance, high ones a need for much substance. Take `Cc1cc(S(C)(=O)=O)ccc1-c1cnc(NCc2c(F)ccc3c2CCO3)n2cc(C#N)nc12` [US11485738, Example 87]: the half-inhibitory concentration (IC50) is less than 100 nM.
With `Cc1nc(N2CCOCC2)ccc1-c1cnc(NCc2c(F)ccc3c2CCO3)n2cc(C#N)nc12` [US11485738, Example 56] the figure was less than 100 nM.
